From patent US10301295B2, “Herbicidal compounds” (Syngenta Participations AG, priority 2014, dated 2019) come the findings set out here.

Each structure is given as a SMILES string. Read-outs that look alike come from different tables or passages of the source.

Holding throughout (assay type): in vivo
The subject of test [1] is Avena fatua (AVEFA). Briefly: Glasshouse assay for herbicidal activity, pre-/post-emergence (percentage phytotoxicity). Conditions: Rate 250 g/ha, 100%=total damage, 0%=no damage; for pest or weed control at 250 g/ha: Avena fatua. Put shortly: (§1)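 Percentage phytotoxicity was assessed visually, 100% meaning total plant damage and 0% none, at 20 days after application for pre-emergence and 15 days for post-emergence. Plants were potted in standard soil and treated after 1 day or about 12 days of growth.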

The test system of test [2] is Echinochloa crus-galli (ECHCG). The description is as above. Conditions: Echinochloa crus-galli, Rate 250 g/ha, 100%=total damage, 0%=no damage. Summed up:
as §1

In test [3] the test system is Lolium perenne (LOLPE). The description is as above. As to conditions: Rate 250 g/ha, 100%=total damage, 0%=no damage; for pest or weed control at 250 g/ha: Lolium perenne. Summed up: as §1
Test [4] deals with Alopecurus myosuroides (ALOMY). Described as above. Conditions: Rate 250 g/ha, 100%=total damage, 0%=no damage; for pest or weed control at 250 g/ha: Alopecurus myosuroides. Summed up:
as §1

The subject of test [5] is wheat. The experiment in a line: Post-emergence herbicidal activity against cereal crops (wheat) +/- safener, crop selectivity. Conditions: 100%=total damage to plant, 0%=no damage; for Post-emergence herbicidal activity against wheat (percentage phytotoxicity), +CQC: 250 g/ha, plus safener cloquintocet-mexyl (CQC) applied at 50 g/ha; for percent phytotoxicity (crop damage) to wheat at 250 g/ha: Triticum aestivum, 360 h, without safener, read-out: Post-emergence herbicidal activity against wheat (percentage phytotoxicity), Wheat - CQC. The method, then: Seeds of a variety of monocotyledonous and dicotyledonous test plants are sown in standard soil in pots. The plants are cultivated for one day (for pre-emergence) or for about 12 days (for post-emergence) under controlled conditions in a glasshouse (warm climate species at 24/18° C., cool climate species at 20/16° C., both at day/night; 16 hours light; 65% humidity). The test plants are then grown on, in a glasshouse (greenhouse) under controlled conditions (warm climate species at 24/18° C., cool climate species at 20/16° C., both at day/night; 16 hours light; 65% humidity) and are watered twice daily. 15 days after application of the test herbicide (15DAA) (for post-emergence), and 20 days after application of the test herbicide (20DAA) (for pre-emergence), the test plants are evaluated visually, and an assessed percentage phytotoxicity score is given for each herbicidal application on each plant species (with 100%=total damage to plant; 0%=no damage to plant).

[6] abbreviates: post-emergence, 360 h, post-emergence, visual assessment 15 DAA, read-out: Post-emergence herbicidal activity (percentage phytotoxicity), AVEFA POST.
[7] abbreviates: pre-emergence, 480 h, pre-emergence, visual assessment 20 DAA, read-out: Pre-emergence herbicidal activity (percentage phytotoxicity), AVEFA PRE.
Setting [8] is: post-emergence, 360 h, post-emergence, visual assessment 15 DAA, read-out: Post-emergence herbicidal activity (percentage phytotoxicity), ECHCG POST.
[9] abbreviates: pre-emergence, 480 h, pre-emergence, visual assessment 20 DAA, read-out: Pre-emergence herbicidal activity (percentage phytotoxicity), ECHCG PRE.
Where [10] appears, read: post-emergence, 360 h, post-emergence, visual assessment 15 DAA, read-out: Post-emergence herbicidal activity (percentage phytotoxicity), LOLPE POST.
Setting [11] is: pre-emergence, 480 h, pre-emergence, visual assessment 20 DAA, read-out: Pre-emergence herbicidal activity (percentage phytotoxicity), LOLPE PRE.
Setting [12] is: 360 h, post-emergence, visual assessment 15 DAA, read-out: Post-emergence herbicidal activity (percentage phytotoxicity), ALOMY POST.
Where [13] appears, read: 480 h, pre-emergence, visual assessment 20 DAA, read-out: Pre-emergence herbicidal activity (percentage phytotoxicity), ALOMY PRE.
[14] abbreviates: pre-emergence, visual assessment 20 DAA.
The mark [15] stands for this setting: post-emergence, visual assessment 15 DAA.

Take `Cc1cc(C)c(C2C(=O)CC(CCNC(=O)NC(=O)c3ccc(Cl)cc3F)C2=O)c(C)c1` (stereo not shown) [Compound A59]: the pest or weed control at 250 g/ha in test [1] (setting [6]) is 90%; in test [1] (setting [7]) it was 30%; in test [2] (setting [8]) it was 90%; in test [2] (setting [9]) it was 100%; in test [3] (setting [10]), 100%; in test [3] (setting [11]), 80%. The values for the pest or weed control at 250 g/ha in test [4] (setting [12]) and in test [4] (setting [13]) were 90% and 70%, respectively. Besides, the “Post-emergence herbicidal activity against wheat (percentage phytotoxicity), +CQC” value in test [5] is given as 80%. In addition, in test [5], the percent phytotoxicity (crop damage) to wheat at 250 g/ha came out at 90%.
Take `Cc1cc(C)c(C2C(=O)CC(CCN(C)C(=O)Nc3ccccn3)C2=O)c(C)c1` (stereo not shown) [Compound A17]: in test [1] (setting [14]), the “Pre-emergence herbicidal activity (percentage phytotoxicity), AVEFA PRE” value was found to be 0%. Also, the “Post-emergence herbicidal activity (percentage phytotoxicity), LOLPE POST” value in test [3] (setting [15]) came to 40%. In addition, the “Pre-emergence herbicidal activity (percentage phytotoxicity), LOLPE PRE” value in test [3] (setting [14]) stood at 30%. In addition, the “Post-emergence herbicidal activity (percentage phytotoxicity), ALOMY POST” value in test [4] (setting [15]) amounted to 70%. For the same compound, in test [5], the “Post-emergence herbicidal activity against wheat (percentage phytotoxicity), +CQC” value worked out at 10% and the percent phytotoxicity (crop damage) to wheat at 250 g/ha came to 50%.
For the compound `Cc1cc(C)c(C2C(=O)CC(CCNC(=O)NC(=O)c3ccccc3C#N)C2=O)c(C)c1` (stereo not shown) [Compound A67], the pest or weed control at 250 g/ha was determined as 0% in test [1] (setting [7]), 30% in test [2] (setting [9]), 20% in test [3] (setting [11]) and 0% in test [4] (setting [13]). The “Post-emergence herbicidal activity against wheat (percentage phytotoxicity), +CQC” value in test [5] was 0%. For the same compound, the percent phytotoxicity (crop damage) to wheat at 250 g/ha in test [5] came to 0%.
For `Cc1cc(C)c(C2C(=O)CC(CCNC(=O)Nc3cc(C(C)(C)F)ncn3)C2=O)c(C)c1` (stereo not shown) [Compound A16], the pest or weed control at 250 g/ha was 100% in test [1] (setting [6]); 70% in test [1] (setting [7]); 80% in test [2] (setting [8]); 100% in test [2] (setting [9]); 90% in test [3] (setting [10]); 90% in test [3] (setting [11]). The pest or weed control at 250 g/ha in test [4] (setting [12]) worked out at 90%; in test [4] (setting [13]), 80%. For the same compound, the “Post-emergence herbicidal activity against wheat (percentage phytotoxicity), +CQC” value in test [5] is 50%. In addition, the percent phytotoxicity (crop damage) to wheat at 250 g/ha in test [5] was determined as 80%.
In the case of `Cc1cc(C)c(C2C(=O)CC(CCNC(=O)Nc3ccc(Br)cn3)C2=O)c(C)c1.Cl` (stereo not shown) [Compound A4], the pest or weed control at 250 g/ha in test [1] (setting [6]) worked out at 100%; in test [1] (setting [7]), 70%; in test [2] (setting [8]), 90%; in test [2] (setting [9]), 60%; in test [3] (setting [10]) it was 100%; in test [3] (setting [11]), 80%. In addition, the pest or weed control at 250 g/ha in test [4] (setting [12]) came out at 90%; in test [4] (setting [13]) it was 80%. Also, the “Post-emergence herbicidal activity against wheat (percentage phytotoxicity), +CQC” value in test [5] turned out to be 50%. In test [5], the percent phytotoxicity (crop damage) to wheat at 250 g/ha came to 90%.
On to `CONC(=O)NCCC1CC(=O)C(c2c(C)cc(C)cc2C)C1=O` (stereo not shown) [Compound A18], for which the pest or weed control at 250 g/ha in test [1] (setting [6]) was found to be 80%; in test [1] (setting [7]), 50%; in test [2] (setting [8]), 90%; in test [2] (setting [9]), 60%; in test [3] (setting [10]), 80%; in test [3] (setting [11]) it was 70%. Besides, the pest or weed control at 250 g/ha in test [4] (setting [12]) is 80%; in test [4] (setting [13]), 60%. Further, the “Post-emergence herbicidal activity against wheat (percentage phytotoxicity), +CQC” value in test [5] amounted to 0%. Besides, in test [5], the percent phytotoxicity (crop damage) to wheat at 250 g/ha was 60%.
As to `Cc1cc(C)c(C2C(=O)CC(CCNC(=S)Nc3ccccc3F)C2=O)c(C)c1` (stereo not shown) [Compound A88], the pest or weed control at 250 g/ha in test [1] (setting [6]) was determined as 0%; in test [1] (setting [7]) it was 0%; in test [2] (setting [8]), 0%; in test [2] (setting [9]), 40%; in test [3] (setting [10]), 60%; in test [3] (setting [11]) it was 40%. The pest or weed control at 250 g/ha in test [4] (setting [12]) and in test [4] (setting [13]) was 0% each time. The “Post-emergence herbicidal activity against wheat (percentage phytotoxicity), +CQC” value in test [5] turned out to be 0%. The percent phytotoxicity (crop damage) to wheat at 250 g/ha in test [5] turned out to be 0%.
Consider `Cc1cc(C)c(C2C(=O)CC(CCNC(=O)NC(=O)c3ccc(F)c(F)c3)C2=O)c(C)c1` (stereo not shown) [Compound A56], for which the pest or weed control at 250 g/ha in test [1] (setting [6]) stood at 80%; in test [1] (setting [7]), 40%; in test [2] (setting [8]), 80%; in test [2] (setting [9]), 60%; in test [3] (setting [10]), 90%; in test [3] (setting [11]), 80%. Further, the figures for the pest or weed control at 250 g/ha in test [4] (setting [12]) and in test [4] (setting [13]) were 80% and 70%, respectively. In addition, the “Post-emergence herbicidal activity against wheat (percentage phytotoxicity), +CQC” value in test [5] is given as 70%. Moreover, the percent phytotoxicity (crop damage) to wheat at 250 g/ha in test [5] stood at 80%.
On to `Cc1cc(C)c(C2C(=O)CC(CCNS(=O)(=O)c3ccc(Cl)cc3Cl)C2=O)c(C)c1` (stereo not shown) [Compound A84], for which the pest or weed control at 250 g/ha turned out to be 80% in test [1] (setting [6]); 10% in test [1] (setting [7]); 50% in test [2] (setting [8]); 30% in test [2] (setting [9]); 70% in test [3] (setting [10]); 50% in test [3] (setting [11]). Also, the pest or weed control at 250 g/ha in test [4] (setting [12]) is 30%; in test [4] (setting [13]) it was 50%. The “Post-emergence herbicidal activity against wheat (percentage phytotoxicity), +CQC” value in test [5] is 0%. Besides, the percent phytotoxicity (crop damage) to wheat at 250 g/ha in test [5] was found to be 0%.
In the case of `CC(=NOCc1ccccc1)C(=O)NCCC1CC(=O)C(c2c(C)cc(-n3cc(Cl)cn3)cc2C)C1=O` (stereo not shown) [Compound A41], the pest or weed control at 250 g/ha in test [1] (setting [6]) came to 20%; in test [1] (setting [7]), 0%; in test [2] (setting [8]), 60%; in test [2] (setting [9]), 0%; in test [3] (setting [10]), 40%; in test [3] (setting [11]) it was 0%. Besides, the pest or weed control at 250 g/ha was 60% in test [4] (setting [12]) and 0% in test [4] (setting [13]). Moreover, the “Post-emergence herbicidal activity against wheat (percentage phytotoxicity), +CQC” value in test [5] is 20%. For the same compound, the percent phytotoxicity (crop damage) to wheat at 250 g/ha in test [5] was 60%.
In the case of `Cc1ccc(C(=O)NC(=O)NCCC2CC(=O)C(c3c(C)cc(C)cc3C)C2=O)cc1` (stereo not shown) [Compound A55], the pest or weed control at 250 g/ha in test [1] (setting [6]) is 0%; in test [1] (setting [7]) it was 10%; in test [2] (setting [8]) it was 80%; in test [2] (setting [9]), 80%; in test [3] (setting [10]), 90%; in test [3] (setting [11]), 70%. Further, the pest or weed control at 250 g/ha in test [4] (setting [12]) is 70%; in test [4] (setting [13]), 60%. Also, the “Post-emergence herbicidal activity against wheat (percentage phytotoxicity), +CQC” value in test [5] is listed as 0%. For the same compound, the percent phytotoxicity (crop damage) to wheat at 250 g/ha in test [5] came to 30%.
Regarding `Cc1cc(C)c(C2C(=O)CC(CCNC(=O)Nc3ccccn3)C2=O)c(C)c1.Cl` (stereo not shown) [Compound A3], the pest or weed control at 250 g/ha in test [1] (setting [6]) stood at 90%; in test [1] (setting [7]) it was 80%; in test [2] (setting [8]), 100%; in test [2] (setting [9]), 100%; in test [3] (setting [10]), 100%; in test [3] (setting [11]) it was 90%. The pest or weed control at 250 g/ha in test [4] (setting [12]) and in test [4] (setting [13]) was 100% in each case. Besides, the “Post-emergence herbicidal activity against wheat (percentage phytotoxicity), +CQC” value in test [5] is 60%. Moreover, in test [5], the percent phytotoxicity (crop damage) to wheat at 250 g/ha amounted to 90%.
